Legend:
[1] = tested on: α-smooth muscle actin (aSMA) positive LL29 cells; assay: Inhibition of the fibrotic process: αSMA staining in TGF-β1 treated LL29 fibroblasts from IPF patients; settings: Homo sapiens, Fibroblast; for EC50: 96 h; for inhibition at 10 µM: read-out: percentage in parentheses after EC50 >10
[2] = tested on: Wnt-responsive Sp5-Luc reporter in SW480 colon carcinoma cells; assay: Screening assay for Wnt activity (Sp5-Luc reporter gene assay); settings: Homo sapiens; for EC50: SW480; for inhibition at 10 µM: SW480, read-out: percent inhibition at 10 μM
DYRK1A kinase = DYRK1A kinase (Homo sapiens, UniProt Q13627); assay: DYRK1A kinase activity (Ser/Thr 18 peptide Z-lyte FRET assay); type: biochemical; settings: recombinant DYRK1A, 30 μM ATP, one hour at room temperature;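 also: kinase activity read as coumarin/fluorescein emission ratio after development step, with unphosphorylated and phosphorylated peptide forms setting 0% and 100% controls, values from dose-response curves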
[3] = tested on: SW480 colon carcinoma cells; assay: Cell viability assay (CellTiter-Glo); settings: Homo sapiens; for EC50: SW480, 96 h; for inhibition at 10 µM: SW480, read-out: percent inhibition at 10 μM
IL-6 = IL-6 inhibition in LPS-stimulated human peripheral blood mononuclear cells (HTRF); settings: Homo sapiens, PBMC; for EC50: 22 h; for inhibition at 10 µM: read-out: percentage in parentheses after EC50 >10
GSK3β kinase = GSK3β kinase (Homo sapiens, UniProt P49841); assay: GSK3β kinase activity (Ser/Thr 09 peptide Z-lyte FRET assay); type: biochemical; settings: recombinant kinase, 46 μM ATP, one hour at room temperature; read-out: EC50
Chain of GSK3β kinase (P49841 whole entry): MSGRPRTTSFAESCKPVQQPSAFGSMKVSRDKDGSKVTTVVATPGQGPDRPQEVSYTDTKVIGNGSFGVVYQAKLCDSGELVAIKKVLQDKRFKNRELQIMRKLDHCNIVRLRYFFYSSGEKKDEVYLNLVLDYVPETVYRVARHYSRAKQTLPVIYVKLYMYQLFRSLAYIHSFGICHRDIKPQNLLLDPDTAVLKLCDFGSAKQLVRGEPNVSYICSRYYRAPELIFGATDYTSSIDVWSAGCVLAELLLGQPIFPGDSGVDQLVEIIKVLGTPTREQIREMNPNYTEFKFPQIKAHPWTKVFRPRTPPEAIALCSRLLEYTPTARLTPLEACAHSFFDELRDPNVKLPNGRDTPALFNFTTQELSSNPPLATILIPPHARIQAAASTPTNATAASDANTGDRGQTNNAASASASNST

CN(C)Cc1ccc(C(=O)Nc2cc3cc(-c4cnn(C)c4)cnc3cn2)cc1 [Compound 2890, 4-((Dimethylamino)methyl)-N-(3-(1-methyl-1H-pyrazol-4-yl)-1,7-naphthyridin-6-yl)benzamide]
EC50 [1]: > 10 µM | inhibition at 10 µM [1]: 29.4% | EC50 [2]: 3.58 µM | EC50 (DYRK1A kinase): 0.035 µM | EC50 [3]: 3.86 µM | EC50 (IL-6): > 10 µM | inhibition at 10 µM (IL-6): 8.6% | EC50 (GSK3β kinase): > 10 µM

CN1CCN(Cc2cccc(C(=O)Nc3cc4cc(-c5cnn(C)c5)cnc4cn3)c2)CC1 [Compound 2892, N-(3-(1-Methyl-1H-pyrazol-4-yl)-1,7-naphthyridin-6-yl)-3-((4-methylpiperazin-1-yl)methyl)benzamide]
EC50 [1]: 3.96 µM | EC50 [2]: > 10 µM | inhibition at 10 µM [2]: 46.9% | EC50 (DYRK1A kinase): 0.039 µM | EC50 [3]: > 10 µM | inhibition at 10 µM [3]: 36% | EC50 (IL-6): > 10 µM | inhibition at 10 µM (IL-6): 16.5% | EC50 (GSK3β kinase): > 10 µM

CN1CCc2ccc(C(=O)Nc3cc4cc(-c5cnn(C)c5)cnc4cn3)cc2C1 [Compound 2922, 2-Methyl-N-(3-(1-methyl-1H-pyrazol-4-yl)-1,7-naphthyridin-6-yl)-1,2,3,4-tetrahydroisoquinoline-7-carboxamide]
EC50 [1]: > 10 µM | inhibition at 10 µM [1]: 47.2% | EC50 [2]: 2.42 µM | EC50 (DYRK1A kinase): 0.036 µM | EC50 [3]: > 10 µM | inhibition at 10 µM [3]: 28.8% | EC50 (IL-6): > 10 µM | inhibition at 10 µM (IL-6): 3.8% | EC50 (GSK3β kinase): > 10 µM

Cn1cc(-c2cnc3cnc(NC(=O)c4ccc5nccnc5c4)cc3c2)cn1 [Compound 2936, N-(3-(1-Methyl-1H-pyrazol-4-yl)-1,7-naphthyridin-6-yl)quinoxaline-6-carboxamide]
EC50 [1]: > 10 µM | inhibition at 10 µM [1]: 21.6% | EC50 [2]: > 10 µM | inhibition at 10 µM [2]: 11.9% | EC50 (DYRK1A kinase): > 10 µM | EC50 [3]: > 10 µM | inhibition at 10 µM [3]: 17.8% | EC50 (IL-6): > 10 µM | inhibition at 10 µM (IL-6): 8.3% | EC50 (GSK3β kinase): > 10 µM

CCN(CC)CC(=O)Nc1cc2cc(-c3cnn(C)c3CN3CCCCC3)cnc2cn1 [Compound 3003, 2-(Diethylamino)-N-(3-(1-methyl-5-(piperidin-1-ylmethyl)-1H-pyrazol-4-yl)-1,7-naphthyridin-6-yl)acetamide]
EC50 [1]: > 10 µM | inhibition at 10 µM [1]: 27.8% | EC50 [2]: > 10 µM | inhibition at 10 µM [2]: 33.5% | EC50 (DYRK1A kinase): 0.067 µM | EC50 [3]: > 10 µM | inhibition at 10 µM [3]: 35.9% | EC50 (IL-6): > 10 µM | inhibition at 10 µM (IL-6): 7.3% | EC50 (GSK3β kinase): 1.52 µM

Cn1ncc(-c2cnc3cnc(NC(=O)c4ccnc(N5CCOCC5)c4)cc3c2)c1CN1CCOCC1 [Compound 3034, N-(3-(1-Methyl-5-(morpholinomethyl)-1H-pyrazol-4-yl)-1,7-naphthyridin-6-yl)-2-morpholinoisonicotinamide]
EC50 [1]: > 10 µM | inhibition at 10 µM [1]: 31.8% | EC50 [2]: > 10 µM | inhibition at 10 µM [2]: 0% | EC50 (DYRK1A kinase): 0.119 µM | EC50 [3]: > 10 µM | inhibition at 10 µM [3]: 10.5% | EC50 (IL-6): > 10 µM | inhibition at 10 µM (IL-6): 9.5% | EC50 (GSK3β kinase): > 10 µM

COC1CCN(CC(=O)Nc2cc3cc(-c4cn(C)nn4)cnc3cn2)CC1 [Compound 3078, 2-(4-Methoxypiperidin-1-yl)-N-(3-(1-methyl-1H-1,2,3-triazol-4-yl)-1,7-naphthyridin-6-yl)acetamide]
EC50 [1]: > 10 µM | inhibition at 10 µM [1]: 41% | EC50 [2]: > 10 µM | inhibition at 10 µM [2]: 11.7% | EC50 (DYRK1A kinase): 0.207 µM | EC50 [3]: > 10 µM | inhibition at 10 µM [3]: 16% | EC50 (IL-6): > 10 µM | inhibition at 10 µM (IL-6): 7.9% | EC50 (GSK3β kinase): 0.76 µM

CNC(=O)c1ccc(C(=O)Nc2cc3cc(-c4cn(C)nn4)cnc3cn2)cn1 [Compound 3092, N^2-Methyl-N-(3-(1-methyl-1H-1,2,3-triazol-4-yl)-1,7-naphthyridin-6-yl) pyridine-2,5-dicarboxamide]
EC50 [1]: > 10 µM | inhibition at 10 µM [1]: 13.3% | EC50 [2]: 2.28 µM | EC50 (DYRK1A kinase): 0.269 µM | EC50 [3]: > 10 µM | inhibition at 10 µM [3]: 10.5% | EC50 (IL-6): > 10 µM | inhibition at 10 µM (IL-6): 7.4% | EC50 (GSK3β kinase): > 10 µM

CN(C)C1CCN(c2cc(C(=O)Nc3cc4cc(-c5cn(C)nn5)cnc4cn3)ccn2)CC1 [Compound 3096, 2-(4-(Dimethylamino)piperidin-1-yl)-N-(3-(1-methyl-1H-1,2,3-triazol-4-yl)-1,7-naphthyridin-6-yl)isonicotinamide]
EC50 [1]: > 10 µM | inhibition at 10 µM [1]: 32.7% | EC50 [2]: 0.596 µM | EC50 (DYRK1A kinase): 0.119 µM | EC50 [3]: 4.09 µM | EC50 (IL-6): > 10 µM | inhibition at 10 µM (IL-6): 0% | EC50 (GSK3β kinase): > 10 µM

CN1CCCN(c2cc(C(=O)Nc3cc4cc(-c5cn(C)nn5)cnc4cn3)ccn2)CC1 [Compound 3099, 2-(4-Methyl-1,4-diazepan-1-yl)-N-(3-(1-methyl-1H-1,2,3-triazol-4-yl)-1,7-naphthyridin-6-yl)isonicotinamide]
EC50 [1]: > 10 µM | inhibition at 10 µM [1]: 44.4% | EC50 [2]: 0.696 µM | EC50 (DYRK1A kinase): 0.154 µM | EC50 [3]: > 10 µM | inhibition at 10 µM [3]: 29.6% | EC50 (IL-6): > 10 µM | inhibition at 10 µM (IL-6): 0% | EC50 (GSK3β kinase): > 10 µM

CN1CCC(N(C)c2cc(C(=O)Nc3cc4cc(-c5cn(C)nn5)cnc4cn3)ccn2)CC1 [Compound 3102, 2-(Methyl(1-methylpiperidin-4-yl)amino)-N-(3-(1-methyl-1H-1,2,3-triazol-4-yl)-1,7-naphthyridin-6-yl)isonicotinamide]
EC50 [1]: > 10 µM | inhibition at 10 µM [1]: 50% | EC50 [2]: > 10 µM | inhibition at 10 µM [2]: 28.5% | EC50 (DYRK1A kinase): 0.088 µM | EC50 [3]: 6.91 µM | EC50 (IL-6): > 10 µM | inhibition at 10 µM (IL-6): 0% | EC50 (GSK3β kinase): > 10 µM

Cn1cnnc1-c1cnc2cnc(NC(=O)C3CCN(CCC(F)(F)F)CC3)cc2c1 [Compound 3111, N-(3-(4-Methyl-4H-1,2,4-triazol-3-yl)-1,7-naphthyridin-6-yl)-1-(3,3,3-trifluoropropyl)piperidine-4-carboxamide]
EC50 [1]: > 10 µM | inhibition at 10 µM [1]: 46.4% | EC50 [2]: > 10 µM | inhibition at 10 µM [2]: 9.7% | EC50 (DYRK1A kinase): 0.377 µM | EC50 [3]: > 10 µM | inhibition at 10 µM [3]: 16.1% | EC50 (IL-6): > 10 µM | inhibition at 10 µM (IL-6): 7.5% | EC50 (GSK3β kinase): 2.14 µM

CC(C)CN1CCC(C(=O)Nc2cc3cc(-c4nnnn4C)cnc3cn2)CC1 [Compound 3118, 1-Isobutyl-N-(3-(1-methyl-1H-tetrazol-5-yl)-1,7-naphthyridin-6-yl) piperidine-4-carboxamide]
EC50 [1]: 4.91 µM | EC50 [2]: > 10 µM | inhibition at 10 µM [2]: 31.2% | EC50 (DYRK1A kinase): 1.48 µM | EC50 [3]: > 10 µM | inhibition at 10 µM [3]: 8.3% | EC50 (IL-6): > 10 µM | inhibition at 10 µM (IL-6): 5.3% | EC50 (GSK3β kinase): > 10 µM

CC(C(=O)Nc1cc2cc(-c3cncn3C)cnc2cn1)N1CCCC1 (centres unmarked) [Compound 3134, N-(3-(1-Methyl-1H-imidazol-5-yl)-1,7-naphthyridin-6-yl)-2-(pyrrolidin-1-yl) propanamide]
EC50 [1]: > 10 µM | inhibition at 10 µM [1]: 19.7% | EC50 [2]: > 10 µM | inhibition at 10 µM [2]: 10.2% | EC50 (DYRK1A kinase): 2 µM | EC50 [3]: > 10 µM | inhibition at 10 µM [3]: 23.8% | EC50 (IL-6): > 10 µM | inhibition at 10 µM (IL-6): 3.9% | EC50 (GSK3β kinase): 2.59 µM

CC(C)OCCC(=O)Nc1cc2cc(-c3cncn3C)cnc2cn1 [Compound 3136, 3-Isopropoxy-N-(3-(1-methyl-1H-imidazol-5-yl)-1,7-naphthyridin-6-yl) propanamide]
EC50 [1]: 0.135 µM | EC50 [2]: > 10 µM | inhibition at 10 µM [2]: 32% | EC50 (DYRK1A kinase): 0.123 µM | EC50 [3]: > 10 µM | inhibition at 10 µM [3]: 18.4% | EC50 (IL-6): > 10 µM | inhibition at 10 µM (IL-6): 9.8% | EC50 (GSK3β kinase): 0.982 µM

Cc1ncc(C(=O)Nc2cc3cc(-c4cnc(C)n4C)cnc3cn2)s1 [Compound 3167, N-(3-(1,2-Dimethyl-1H-imidazol-5-yl)-1,7-naphthyridin-6-yl)-2-methylthiazole-5-carboxamide]
EC50 [1]: 2.04 µM | EC50 [2]: > 10 µM | inhibition at 10 µM [2]: 0% | EC50 (DYRK1A kinase): 0.037 µM | EC50 [3]: > 10 µM | inhibition at 10 µM [3]: 8.1% | EC50 (IL-6): > 10 µM | inhibition at 10 µM (IL-6): 5.4% | EC50 (GSK3β kinase): > 10 µM

CC(C)Oc1ccc(C(=O)Nc2cc3cc(-c4cnc5n4CCNC5)cnc3cn2)cc1 [Compound 3240, 4-Isopropoxy-N-(3-(5,6,7,8-tetrahydroimidazo[1,2-a]pyrazin-3-yl)-1,7-naphthyridin-6-yl)benzamide]
EC50 [1]: > 10 µM | inhibition at 10 µM [1]: 15.9% | EC50 [2]: > 10 µM | inhibition at 10 µM [2]: 0% | EC50 (DYRK1A kinase): 1.05 µM | EC50 [3]: > 10 µM | inhibition at 10 µM [3]: 18.6% | EC50 (IL-6): > 10 µM | inhibition at 10 µM (IL-6): 10.5% | EC50 (GSK3β kinase): > 10 µM

Cc1ncc(-c2cnc3cnc(NC(=O)c4ccnc(N5CCN(C)CC5)c4)cc3c2)s1 [Compound 3363, 2-(4-Methylpiperazin-1-yl)-N-(3-(2-methylthiazol-5-yl)-1,7-naphthyridin-6-yl)isonicotinamide]
EC50 [1]: > 10 µM | inhibition at 10 µM [1]: 34.7% | EC50 [2]: > 10 µM | inhibition at 10 µM [2]: 32.9% | EC50 (DYRK1A kinase): 0.119 µM | EC50 [3]: 3.96 µM | EC50 (IL-6): > 10 µM | inhibition at 10 µM (IL-6): 5.6% | EC50 (GSK3β kinase): 9.99 µM
